Entries after “also recorded” stand apart in the source; their conditions may differ.
Test system: MEC-1 cells
Test: ADCC cytotoxicity (target cell killing) of MEC-1 cells with NK cells, MOR00208 and Idelalisib alone and in combination
Type: cell-based, human
Description: The cytotoxicity of MOR00208 and Idelalisib alone and in combination were tested in the MEC-1 cell line.
Idelalisib is a phosphoinositide 3-kinase inhibitor; more specifically, it blocks P110δ, the delta isoform of the enzyme phosphoinositide 3-kinase. […] MOR00208 targets CD19 and mediates target cell killing via ADCC.
The following were used as controls: a) MEC-1 cells+RefmAb33+DMSO+NK cells, b) MEC-1 cells+DMSO+NK cells, c) MEC-1 cells+DMSO.
Target cell killing was measured using the following parameters: Idelalisib at concentrations of 0.3, 1, 3 and 10 μM; MOR00208 at concentrations of 1.5, 0.015 and 0.0015 μg/ml and the combination of MOR00208 and Idelalisib at the same concentrations.
In the Idelalisib group, […] in the MOR00208+Idelalisib combination group, target cells were pre-treated with Idelalisib for 7 days prior to the ADCC assay measurements. The target cells were counted and stained using 10 μM CFSE end concentration. For DMSO treated target cells, an effector:target (E:T) ratio of 2:1 is chosen, corresponding to a cell density of 5×10^5/ml. The proliferative effect on target cells caused by Idelalisib treatment was included by adjusting the E:T ratio in inhibitor treated cells. The NK cells are counted and adjusted to 1×10^6/ml. The target cell killing assays were performed as follows: using 96 well plates, 100 μl of target cell suspension was added per well, followed by 100 μl cell suspension of NK cells to each well resulting in an E:T ratio of 2:1. The antibodies were diluted in a range of 10-0.00001 nM (corresponding to 1.5-0.0000015 μg/ml) in medium. Cells were centrifuged and target:effector cell-pellets were re-suspended in 100 μl antibody-containing medium or the according control solution. The assay was incubated for 4 h in CO2-incubator at 37° C. After 10 min incubation on ice, 50 μl DAPI solution was added to each well (final concentration 1 μg/ml) and incubated on ice for 10 min. The cell killing measurements were performed with FACS-Verse. Dead target cells were DAPI positive.
In total, six experiments were performed in order to determine the mediation of ADCC on MEC-1 cells by the combination of MOR00208 and Idelalisib. […] The autoreactivity of the NK cells prevented a proper analysis in those two experiments.
The % dead cells (raw data) from Tables 1-16 was analysed in the following way:
[formula] [formula] [formula] where A is the treatment with MOR00208 alone; B is the treatment with Idelalisib alone; C is response to the control DMSO+RefMab33; AB is the combination of treatments A and B.
In order to confirm the results of synergy as calculated using Clarke et al. above, the Combination Index (CI) method was applied to the % dead cells (raw data) of Tables 1-16. For CI calculations, we used 0.3, 1, 3 and 10 μM Idelalisib and three MOR208 concentrations (1.5, 0.015 and 0.0015 μg/ml).

For `CC[C@H](Nc1ncnc2nc[nH]c12)c1nc2cccc(F)c2c(=O)n1-c1ccccc1` [Idelalisib], the “effect of the Idelalisib group greater than the control” value (Experiment 1, Tables 1-3) was roughly 4%, the “% dead cells” value (Experiment 1, Idelalisib 0.3 μM, MOR00208 0.01 nM (0.0015 μg/ml)) was 6.8% and the “% dead cells” value (Experiment 1, Idelalisib 0.3 μM, MOR00208 0.1 nM (0.015 μg/ml)) was 6.8%. The “% dead cells” value (Experiment 1, Idelalisib 0.3 μM, MOR00208 10 nM (1.5 μg/ml)) was 6.8%, the “% dead cells” value (Experiment 1, Idelalisib 1 μM, MOR00208 0.01 nM (0.0015 μg/ml)) was 10.8% and the “% dead cells” value (Experiment 1, Idelalisib 1 μM, MOR00208 0.1 nM (0.015 μg/ml)) was 10.8%. The “% dead cells” value (Experiment 1, Idelalisib 1 μM, MOR00208 10 nM (1.5 μg/ml)) was 10.8%, the “% dead cells” value (Experiment 1, Idelalisib 3 μM, MOR00208 0.01 nM (0.0015 μg/ml)) was 11.3% and the “% dead cells” value (Experiment 1, Idelalisib 3 μM, MOR00208 0.1 nM (0.015 μg/ml)) was 11.3%. The “% dead cells” value (Experiment 1, Idelalisib 3 μM, MOR00208 10 nM (1.5 μg/ml)) was 11.3%, the “% dead cells” value (Experiment 1, Idelalisib 10 μM, MOR00208 0.01 nM (0.0015 μg/ml)) was 11.6% and the “% dead cells” value (Experiment 1, Idelalisib 10 μM, MOR00208 0.1 nM (0.015 μg/ml)) was 11.6%. For the same compound, the “% dead cells” value (Experiment 1, Idelalisib 10 μM, MOR00208 10 nM (1.5 μg/ml)) was 11.6%, the “% dead cells” value (Experiment 2, Idelalisib 0.3 μM, MOR00208 0.01 nM (0.0015 μg/ml)) was 20.8% and the “% dead cells” value (Experiment 2, Idelalisib 0.3 μM, MOR00208 0.1 nM (0.015 μg/ml)) was 20.8%. The “% dead cells” value (Experiment 2, Idelalisib 0.3 μM, MOR00208 10 nM (1.5 μg/ml)) was 20.8%, the “% dead cells” value (Experiment 2, Idelalisib 1 μM, MOR00208 0.01 nM (0.0015 μg/ml)) was 20.7% and the “% dead cells” value (Experiment 2, Idelalisib 1 μM, MOR00208 01 nM (0.015 μg/ml)) was 20.7%. The “% dead cells” value (Experiment 2, Idelalisib 1 μM, MOR00208 10 nM (1.5 μg/ml)) was 20.7%, the “% dead cells” value (Experiment 2, Idelalisib 3 μM, MOR00208 0.01 nM (0.0015 μg/ml)) was 14.6% and the “% dead cells” value (Experiment 2, Idelalisib 3 μM, MOR00208 0.1 nM (0.015 μg/ml)) was 14.6%. For the same compound, the “% dead cells” value (Experiment 2, Idelalisib 3 μM, MOR00208 10 nM (1.5 μg/ml)) was 14.6%, the “% dead cells” value (Experiment 2, Idelalisib 10 μM, MOR00208 0.01 nM (0.0015 μg/ml)) was 14.7% and the “% dead cells” value (Experiment 2, Idelalisib 10 μM, MOR00208 0.1 nM (0.015 μg/ml)) was 14.7%. For the same compound, the “% dead cells” value (Experiment 2, Idelalisib 10 μM, MOR00208 10 nM (1.5 μg/ml)) was 14.7%, the “% dead cells” value (Experiment 3, Idelalisib 0.3 μM, MOR00208 0.01 nM (0.0015 μg/ml)) was 17.3% and the “% dead cells” value (Experiment 3, Idelalisib 0.3 μM, MOR00208 0.1 nM (0.015 μg/ml)) was 17.3%. For the same compound, the “% dead cells” value (Experiment 3, Idelalisib 0.3 μM, MOR00208 10 nM (1.5 μg/ml)) was 17.3%, the “% dead cells” value (Experiment 3, Idelalisib 1 μM, MOR00208 0.01 nM (0.0015 μg/ml)) was 18.7% and the “% dead cells” value (Experiment 3, Idelalisib 1 μM, MOR00208 0.1 nM (0.015 μg/ml)) was 18.7%. The “% dead cells” value (Experiment 3, Idelalisib 1 μM, MOR00208 10 nM (1.5 μg/ml)) was 18.7%, the “% dead cells” value (Experiment 3, Idelalisib 3 μM, MOR00208 0.01 nM (0.0015 μg/ml)) was 14.0% and the “% dead cells” value (Experiment 3, Idelalisib 3 μM, MOR00208 0.1 nM (0.015 μg/ml)) was 14.0%. The “% dead cells” value (Experiment 3, Idelalisib 3 μM, MOR00208 10 nM (1.5 μg/ml)) was 14.0%, the “% dead cells” value (Experiment 3, Idelalisib 10 μM, MOR00208 0.01 nM (0.0015 μg/ml)) was 11.5% and the “% dead cells” value (Experiment 3, Idelalisib 10 μM, MOR00208 0.1 nM (0.015 μg/ml)) was 11.5%. The “% dead cells” value (Experiment 3, Idelalisib 10 μM, MOR00208 10 nM (1.5 μg/ml)) was 11.5%, the “% dead cells” value (Experiment 4, Idelalisib 0.3 μM, MOR00208 0.01 nM (0.0015 μg/ml)) was 15.5% and the “% dead cells” value (Experiment 4, Idelalisib 0.3 μM, MOR00208 0.1 nM (0.015 μg/ml)) was 15.5%. For the same compound, the “% dead cells” value (Experiment 4, Idelalisib 0.3 μM, MOR00208 10 nM (1.5 μg/ml)) was 15.5%, the “% dead cells” value (Experiment 4, Idelalisib 1 μM, MOR00208 0.01 nM (0.0015 μg/ml)) was 15.9% and the “% dead cells” value (Experiment 4, Idelalisib 1 μM, MOR00208 0.1 nM (0.015 μg/ml)) was 15.9%. For the same compound, the “% dead cells” value (Experiment 4, Idelalisib 1 μM, MOR00208 10 nM (1.5 μg/ml)) was 15.9%, the “% dead cells” value (Experiment 4, Idelalisib 3 μM, MOR00208 0.01 nM (0.0015 μg/ml)) was 13.8% and the “% dead cells” value (Experiment 4, Idelalisib 3 μM, MOR00208 0.1 nM (0.015 μg/ml)) was 13.8%. The “% dead cells” value (Experiment 4, Idelalisib 3 μM, MOR00208 10 nM (1.5 μg/ml)) was 13.8%, the “% dead cells” value (Experiment 4, Idelalisib 10 μM, MOR00208 0.01 nM (0.0015 μg/ml)) was 12.1% and the “% dead cells” value (Experiment 4, Idelalisib 10 μM, MOR00208 0.1 nM (0.015 μg/ml)) was 12.1%. For the same compound, the “% dead cells” value (Experiment 4, Idelalisib 10 μM, MOR00208 10 nM (1.5 μg/ml)) was 12.1% and the “cytotoxic effects against MEC-1 cells” value (Idelalisib alone) was “little to no cyctotoxic effects; also recorded: low cytotoxity activity”.
